Legend:
[1] = target: CDK7/cyclinH/MAT1 complex (Homo sapiens, UniProt P50613); assay: In-vitro enzymatic inhibitory activity testing, CDK7 inhibition assay (Caliper EZ Reader II); assay type: biochemical; conditions: CDK7/cyclinH/MAT1 6 nM, 180 min at 27° C.
In short: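 Enzyme preincubated 10 min with compound, then peptide substrate plus ATP added in 80 mM MES pH 6.5, 10 mM MgCl2 buffer; 180 min at 27 °C, stopped with EDTA.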

CDK2/cyclinE1 complex = CDK2/cyclinE1 complex (Homo sapiens, UniProt P24941); assay: In-vitro enzymatic inhibitory activity testing, CDK2 inhibition assay (Caliper EZ Reader II); assay type: biochemical; conditions: CDK2/cyclinE1 0.5 nM, 180 min at 27° C.
In short: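 CDK2/cyclinE1 (0.5 nM) phosphorylated 5-FAM-CDK7tide (2 μM) in MES buffer pH 6.5 with MgCl2, Tween 20 and BSA. Substrate and product were separated electrophoretically on a Caliper EZ Reader II. IC50 values came from nonlinear dose-response fits.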

CDK9/cyclinT1 complex = CDK9/cyclinT1 complex (Homo sapiens, UniProt P50750); assay: In-vitro enzymatic inhibitory activity testing, CDK9 inhibition assay (Caliper EZ Reader II); assay type: biochemical; conditions: CDK9/cyclinT1 8 nM, 180 min at 27° C.
Chain of CDK9/cyclinT1 complex (P50750 whole entry, species assumed): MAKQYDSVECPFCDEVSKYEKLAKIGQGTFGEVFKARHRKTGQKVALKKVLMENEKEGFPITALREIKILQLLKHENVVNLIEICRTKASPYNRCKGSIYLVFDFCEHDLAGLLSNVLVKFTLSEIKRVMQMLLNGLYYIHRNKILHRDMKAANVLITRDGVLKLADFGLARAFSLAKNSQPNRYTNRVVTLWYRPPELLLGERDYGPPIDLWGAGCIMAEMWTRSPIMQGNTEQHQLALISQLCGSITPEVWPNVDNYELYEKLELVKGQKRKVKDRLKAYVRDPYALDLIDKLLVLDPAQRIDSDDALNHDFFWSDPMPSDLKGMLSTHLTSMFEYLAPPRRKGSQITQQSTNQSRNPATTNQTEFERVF
Chain of CDK9/cyclinT1 complex (O60563 whole entry partner, species assumed): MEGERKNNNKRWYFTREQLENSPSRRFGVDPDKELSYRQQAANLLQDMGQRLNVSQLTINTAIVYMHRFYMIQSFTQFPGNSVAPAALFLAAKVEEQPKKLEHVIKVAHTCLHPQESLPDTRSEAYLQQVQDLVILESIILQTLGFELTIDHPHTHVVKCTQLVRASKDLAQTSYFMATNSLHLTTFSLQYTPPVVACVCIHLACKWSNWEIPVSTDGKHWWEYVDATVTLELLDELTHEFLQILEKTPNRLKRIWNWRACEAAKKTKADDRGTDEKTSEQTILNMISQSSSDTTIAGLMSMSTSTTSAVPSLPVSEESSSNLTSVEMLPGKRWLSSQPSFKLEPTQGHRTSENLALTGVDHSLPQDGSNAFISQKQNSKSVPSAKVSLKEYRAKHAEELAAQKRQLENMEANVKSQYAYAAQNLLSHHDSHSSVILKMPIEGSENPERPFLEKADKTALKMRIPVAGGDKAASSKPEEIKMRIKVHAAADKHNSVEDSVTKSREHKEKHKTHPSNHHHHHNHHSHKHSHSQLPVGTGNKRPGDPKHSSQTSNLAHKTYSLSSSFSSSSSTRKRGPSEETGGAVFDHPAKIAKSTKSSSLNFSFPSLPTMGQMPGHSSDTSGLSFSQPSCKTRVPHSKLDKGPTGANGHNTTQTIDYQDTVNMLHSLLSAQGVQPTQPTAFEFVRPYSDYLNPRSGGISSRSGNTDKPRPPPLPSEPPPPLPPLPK
In short: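 Phosphorylated and unphosphorylated fluorescent peptide were resolved by mobility-shift electrophoresis, with IC50 taken from a nonlinear regression of dose-response data. Reactions ran 180 min at 27 °C in MES buffer pH 6.5 with MgCl2, after 10 min enzyme–compound preincubation, using 8 nM CDK9/cyclinT1 and 5-FAM-CDK9tide.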

[2] = target: T1, CDK12 (aa686-1082)/cyclinK complex (Homo sapiens, UniProt Q9NYV4); assay: In-vitro enzymatic inhibitory activity testing, CDK12 inhibition assay (Caliper EZ Reader II); assay type: biochemical; conditions: CDK12/cyclinK 50 nM, 180 min at 27° C.; read-out: CDK12 IC50
T1 construct: A CDK12 (aa686-1082)/cyclinK complex (50 nM)
T1 sequence (Q9NYV4 686-1082, species assumed): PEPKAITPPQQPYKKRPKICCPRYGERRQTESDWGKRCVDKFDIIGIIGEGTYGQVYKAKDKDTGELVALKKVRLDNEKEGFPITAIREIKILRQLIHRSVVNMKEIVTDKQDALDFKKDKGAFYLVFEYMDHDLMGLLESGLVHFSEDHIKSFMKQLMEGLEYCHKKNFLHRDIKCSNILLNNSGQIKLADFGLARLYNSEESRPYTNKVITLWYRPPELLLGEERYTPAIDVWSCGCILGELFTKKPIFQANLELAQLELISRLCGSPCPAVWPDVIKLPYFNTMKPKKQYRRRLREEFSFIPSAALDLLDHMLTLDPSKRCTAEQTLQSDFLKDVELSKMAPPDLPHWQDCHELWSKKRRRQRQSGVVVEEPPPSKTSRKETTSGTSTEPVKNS
T1 sequence (O75909 whole entry partner, species assumed, the tested form may be a part): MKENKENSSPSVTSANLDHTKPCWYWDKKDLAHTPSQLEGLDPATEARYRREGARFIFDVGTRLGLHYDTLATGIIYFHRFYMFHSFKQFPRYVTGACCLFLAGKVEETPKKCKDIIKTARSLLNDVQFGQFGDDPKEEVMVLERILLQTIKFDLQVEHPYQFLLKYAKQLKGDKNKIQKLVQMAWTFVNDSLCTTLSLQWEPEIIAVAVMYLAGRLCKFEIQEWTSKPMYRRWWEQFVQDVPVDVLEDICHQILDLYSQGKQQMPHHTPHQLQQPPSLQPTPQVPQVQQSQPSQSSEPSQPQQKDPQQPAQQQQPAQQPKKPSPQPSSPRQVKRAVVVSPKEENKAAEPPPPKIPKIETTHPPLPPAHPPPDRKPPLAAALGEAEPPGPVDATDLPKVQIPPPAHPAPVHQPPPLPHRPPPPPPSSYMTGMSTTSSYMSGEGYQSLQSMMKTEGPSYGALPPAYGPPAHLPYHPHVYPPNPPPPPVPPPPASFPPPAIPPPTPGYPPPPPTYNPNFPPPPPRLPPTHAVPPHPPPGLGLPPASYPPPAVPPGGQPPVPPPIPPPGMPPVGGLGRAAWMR
In short: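 CDK12 (aa686-1082)/cyclinK complex at 50 nM was pre-incubated with compound for 10 min, then reacted 180 min at 27° C with ATP and 2 μM 5-FAM-CDK9tide in pH 6.5 MES buffer with 10 mM MgCl2. Reactions were EDTA-quenched and product resolved electrophoretically; IC50 from nonlinear curve fit.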

[3] = test system: human breast cancer cells HCC70; assay: Cell biological activity detection (CyQuant, 72 hours), HCC70; assay type: cell-based; conditions: incubation for 72 hours
Description: (§1) A2780 and HCC70 cells were subjected to trypsin digestion treatment, and cell suspensions were respectively transferred to 15 mL centrifuge tubes and centrifuged for 5 min at […]) rpm; supernatant was discarded, and resuspension was carried out in a fresh medium (RPMI 1640+10% FBS), after counting, cells were seeded into a 384-well plate at 2000/well (50 μL of 1640+10% FBS medium was added to the 2nd column and the 23rd column of the 384-well plate, and 50 μL of DPBS was added to the surrounding wells). Incubation was carried out overnight in an incubator (37° C., 5% CO2).
(§2) The compound was added to the well plates the next day. The compound had the highest concentration of 10 μM and was diluted at 1:4, and there were a total of 9 concentrations; and a positive compound Paclitaxel had the highest concentration of 1 μM and was diluted at 1:3, and there were a total of 9 concentrations. The DMSO content in each well was unified to 0.2%. The cell plates were centrifuged for 30 seconds at 800 rpm and placed in an incubator (37° C., 5% CO2) for incubation for 72 hours. On the fourth day, a Cyquant reagent (3×) was formulated according to kit instructions, and formulation was carried out for each 384-well plate according to the following proportions: DPBS 11.568 mL, CyQuant®? Direct nucleic acid stain 72 μL, and CyQuant® Direct background suppressor 360 μL. After uniform mixing, the reagent was placed at room temperature for further use. The cell plates were taken out and equilibrated for 30 min at room temperature, and 25 μL of the Cyquant reagent (3×) per well was dispensed into the cells of the 384-well plates by Multi-drop, and incubation was carried out for more than 60 minutes at 37° C. Acumen plate reading (Acumen setting: an excitation wavelength of 488 nm). IC50 results were analyzed by XLFIT5 from IDBS Company.

ovarian cancer A2780 = assay: Cell biological activity detection (CyQuant, 72 hours), A2780; assay type: cell-based, human; conditions: A2780 cells, incubation for 72 hours
Description: as §1, §2

Chain of CDK7/cyclinH/MAT1 complex (P50613 whole entry, species assumed): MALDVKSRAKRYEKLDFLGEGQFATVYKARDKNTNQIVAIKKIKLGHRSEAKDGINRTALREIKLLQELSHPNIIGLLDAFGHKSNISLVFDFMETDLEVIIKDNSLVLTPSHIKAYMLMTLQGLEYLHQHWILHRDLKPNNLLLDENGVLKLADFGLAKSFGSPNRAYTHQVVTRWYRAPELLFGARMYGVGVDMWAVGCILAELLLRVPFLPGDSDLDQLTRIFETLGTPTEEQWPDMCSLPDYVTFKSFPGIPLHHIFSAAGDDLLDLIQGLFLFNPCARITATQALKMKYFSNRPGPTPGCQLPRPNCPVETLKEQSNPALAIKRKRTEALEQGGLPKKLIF
Chain of CDK7/cyclinH/MAT1 complex (P51946 whole entry partner, species assumed): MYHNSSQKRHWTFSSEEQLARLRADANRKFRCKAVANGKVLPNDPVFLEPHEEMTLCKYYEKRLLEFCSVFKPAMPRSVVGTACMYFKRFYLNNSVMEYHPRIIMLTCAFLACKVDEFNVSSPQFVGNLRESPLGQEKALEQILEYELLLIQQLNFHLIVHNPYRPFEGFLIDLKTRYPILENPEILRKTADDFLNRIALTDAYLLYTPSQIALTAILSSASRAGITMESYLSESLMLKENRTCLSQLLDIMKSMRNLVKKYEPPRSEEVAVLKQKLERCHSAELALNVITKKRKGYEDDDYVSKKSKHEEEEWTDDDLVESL
Chain of CDK7/cyclinH/MAT1 complex (P51948 whole entry partner, species assumed): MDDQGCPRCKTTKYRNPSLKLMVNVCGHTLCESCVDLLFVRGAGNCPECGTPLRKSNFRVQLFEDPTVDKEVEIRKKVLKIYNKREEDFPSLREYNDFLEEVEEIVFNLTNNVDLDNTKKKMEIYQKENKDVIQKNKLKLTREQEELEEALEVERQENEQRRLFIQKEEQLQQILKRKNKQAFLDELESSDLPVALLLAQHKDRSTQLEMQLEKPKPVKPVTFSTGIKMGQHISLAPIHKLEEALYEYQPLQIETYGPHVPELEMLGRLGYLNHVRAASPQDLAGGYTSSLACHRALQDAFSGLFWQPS

SMILES	IC50 [1]	IC50 (CDK2/cyclinE1 complex)	IC50 (CDK9/cyclinT1 complex)	IC50 [2]	IC50 ([3]; Homo sapiens, HCC70, 72 h)	IC50 (ovarian cancer A2780; Homo sapiens, A2780, 72 h)	IC50 [3]	IC50 (ovarian cancer A2780)
FC(F)(F)c1cnc(NC2CCC23CCNC3)nc1-c1c[nH]c2nc(N3CCOCC3)ccc12 (stereo not drawn) [Compound 37, N-(4-(6-morpholinyl-1H-pyrrolo[2,3-b]pyridin-3-yl)-5-(trifluoromethyl)pyrimidin-2-yl)-6-azaspiro[3.4]octan-1-amine]	0.02 to 0.2 µM	5 to 50 µM	5 to 50 µM	5 to 50 µM	0.2 to 5 µM	0.2 to 5 µM		
CP(C)(=O)c1cccc2c(-c3nc(NC4CCC5(CCNC5)C4)ncc3C(F)(F)F)c[nH]c12 (single isomer, unassigned) [Compound 98]	< 0.02 µM	0.2 to 5 µM	5 to 50 µM	5 to 50 µM	< 0.02 µM	< 0.02 µM		
CC(O)[C@H](C)Nc1ncc(C(F)(F)F)c(-c2c[nH]c3c(P(C)(C)=O)cccc23)n1 (mixture of isomers) [Compound 128, (3-(2-(((2S)-3-hydroxybutan-2-yl)amino)-5-(trifluoromethyl)pyrimidin-4-yl)-1H-indole-7-yl)dimethylphosphine oxide]	< 0.02 µM	5 to 50 µM	> 50 µM	> 50 µM	0.02 to 0.2 µM	< 0.02 µM		
FC(F)(F)c1cnc(N[C@H]2CCCNC2)nc1-c1c[nH]c2cc(N3CCCC3)ccc12 [Compound 101, (S)—N-(piperidin-3-yl)-4-(6-(pyrrolidin-1-yl)-1H-indole-3-yl)-5-(trifluoromethyl)pyrimidin-2-amine, reference compound]	0.02 to 0.2 µM	5 to 50 µM	0.2 to 5 µM	0.2 to 5 µM	0.2 to 5 µM	0.02 to 0.2 µM		
C[C@@H]1C[C@H](Nc2ncc(C(F)(F)F)c(-c3c[nH]c4nc(N5CCOCC5)ccc34)n2)CCN1 [Compound 54, N-((2R,4R)-2-methylpiperidin-4-yl)-4-(6-morpholinyl-1H-pyrrolo[2,3-b]pyridin-3-yl)-5-(trifluoromethyl)pyrimidin-2-amine]	0.02 to 0.2 µM	5 to 50 µM	> 50 µM	5 to 50 µM	0.2 to 5 µM	0.2 to 5 µM		
CP(C)(=O)c1cccc2c(-c3nc(N[C@@H](CO)C4CC4)ncc3C(F)(F)F)c[nH]c12 [Compound 159, (R)-(3-(2-((1-cyclopropyl-2-hydroxyethyl)amino)-5-(trifluoromethyl)pyrimidin-4-yl)-1H-indole-7-yl)dimethylphosphine oxide]	< 0.02 µM	5 to 50 µM	> 50 µM	> 50 µM	0.02 to 0.2 µM	0.02 to 0.2 µM		
FC(F)(F)c1cnc(NC2CCCNCC2)nc1-c1c[nH]c2nc(N3CCOCC3)ccc12 (single isomer, unassigned) [Compound 49]	0.2 to 5 µM	5 to 50 µM	> 50 µM	5 to 50 µM			0.2 to 5 µM	0.2 to 5 µM
CP(C)(=O)c1cccc2c(-c3nc(NC4(CO)CCOCC4)ncc3C(F)(F)F)c[nH]c12 [Compound 166, (3-(2-((4-(hydroxymethyl)tetrahydro-2H-pyran-4-yl)amino)-5-(trifluoromethyl)pyrimidin-4-yl)-1H-indole-7-yl)dimethylphosphine oxide]	0.02 to 0.2 µM	> 50 µM	> 50 µM	> 50 µM	0.2 to 5 µM	0.2 to 5 µM		
CP(C)(=O)c1cccc2c(-c3nc(NC4CC45CCNC5)ncc3C(F)(F)F)c[nH]c12 (single isomer, unassigned) [Compound 108]	< 0.02 µM	0.2 to 5 µM	5 to 50 µM	0.2 to 5 µM	< 0.02 µM	< 0.02 µM		

From patent US20240124504A1, “AROMATIC HETEROCYCLIC COMPOUND, AND PHARMACEUTICAL COMPOSITION AND APPLICATION THEREOF” (GT APEIRON THERAPEUTICS LIMITED, priority 2020, published 2024)
